One may read the pIC50 as the negative decadic logarithm of the IC50, by convention in mol/L.

pIC50: −log10 of the molar value.

The target of the first experiment is T1, HCV NS5B (Hepatitis C virus genotype 1b, UniProt Q9WMX2).
T1 construct: The protein was expressed with an 18 amino acid C-terminal truncation to enhance the solubility; made in house; host or cells: E. coli BL21 (DE3)
T1 sequence (Q9WMX2 2420-2992): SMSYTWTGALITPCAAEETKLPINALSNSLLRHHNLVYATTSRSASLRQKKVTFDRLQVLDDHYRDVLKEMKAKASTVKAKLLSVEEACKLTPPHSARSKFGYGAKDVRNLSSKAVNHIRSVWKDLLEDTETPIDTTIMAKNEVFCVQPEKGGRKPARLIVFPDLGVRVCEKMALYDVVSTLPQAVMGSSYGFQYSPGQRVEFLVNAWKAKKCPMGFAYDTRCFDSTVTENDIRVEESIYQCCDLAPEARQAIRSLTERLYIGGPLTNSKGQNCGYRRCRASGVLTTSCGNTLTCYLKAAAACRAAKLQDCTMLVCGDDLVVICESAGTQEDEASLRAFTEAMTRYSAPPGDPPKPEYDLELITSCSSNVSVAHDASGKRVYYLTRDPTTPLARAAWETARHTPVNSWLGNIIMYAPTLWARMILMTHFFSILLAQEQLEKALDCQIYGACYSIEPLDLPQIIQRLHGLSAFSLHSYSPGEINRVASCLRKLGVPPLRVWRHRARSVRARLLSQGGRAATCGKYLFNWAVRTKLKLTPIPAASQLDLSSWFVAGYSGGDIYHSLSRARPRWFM
In words: HCV NS5B RdRp enzyme assay (standard / modified).
Details: not given
The class given is biochemical. The method, then:
HCV NS5B RdRp cloning, expression, and purification. The cDNA encoding the NS5B protein of HCV, genotype 1b, was cloned into the pET21a expression vector. The protein was expressed with an 18 amino acid C-terminal truncation to enhance the solubility. The E. coli competent cell line BL21 (DE3) was used for expression of the protein. Cultures were grown at 37° C. for ˜4 hours until the cultures reached an optical density of 2.0 at 600 nm. The cultures were cooled to 20° C. and induced with 1 mM IPTG. Fresh ampicillin was added to a final concentration of 50 μg/ml and the cells were grown overnight at 20° C.
Cell pellets (3 L) were lysed for purification to yield 15-24 mgs of purified NS5B. The lysis buffer consisted of 20 mM Tris-HCl, pH 7.4, 500 mM NaCl, 0.5% triton X-100, 1 mM DTT, 1 mM EDTA, 20% glycerol, 0.5 mg/ml lysozyme, 10 mM MgCl2, 15 ug/ml deoxyribonuclease I, and Complete TM protease inhibitor tablets (Roche). After addition of the lysis buffer, frozen cell pellets were resuspended using a tissue homogenizer. To reduce the viscosity of the sample, aliquots of the lysate were sonicated on ice using a microtip attached to a Branson sonicator. The sonicated lysate was centrifuged at 100,000×g for 1 hr at 4° C. and filtered through a 0.2 μm filter unit (Corning).
The protein was purified using three sequential chromatography steps: Heparin sepharose CL-6B, polyU sepharose 4B, and Hitrap SP sepharose (Pharmacia). The chromatography buffers were identical to the lysis buffer but contained no lysozyme, deoxyribonuclease I, MgCl2 or protease inhibitor and the NaCl concentration of the buffer was adjusted according to the requirements for charging the protein onto the column. Each column was eluted with a NaCl gradient which varied in length from 5-50 column volumes depending on the column type. After the final chromatography step, the resulting purity of the enzyme is >90% based on SDS-PAGE analysis. The enzyme was aliquoted and stored at −80° C.
Standard HCV NS5B RdRp enzyme assay. HCV RdRp genotype 1b assays were run in a final volume of 60 μl in 96 well plates (Costar 3912). The assay buffer is composed of 20 mM Hepes, pH 7.5, 2.5 mM KCl, 2.5 mM MgCl2, 1 mM DTT, 1.6 U RNAse inhibitor (Promega N2515), 0.1 mg/ml BSA (Promega R3961), and 2% glycerol. All compounds were serially diluted (3-fold) in DMSO and diluted further in water such that the final concentration of DMSO in the assay was 2%. HCV RdRp genotype 1b enzyme was used at a final concentration of 28 nM. A polyA template was used at 6 nM, and a biotinylated oligo-dT12 primer was used at 180 nM final concentration. Template was obtained commercially (Amersham 27-4110). Biotinylated primer was prepared by Sigma Genosys. 3H-UTP was used at 0.6 μCi (0.29 μM total UTP). Reactions were initiated by the addition of enzyme, incubated at 30° C. for 60 min, and stopped by adding 25 μl of 50 mM EDTA containing SPA beads (4 μg/μl, Amersham RPNQ 0007). Plates were read on a Packard Top Count NXT after >1 hr incubation at room temperature.
Modified HCV NS5B RdRp enzyme assay. A modified enzyme assay was performed essentially as described for the standard enzyme assay except for the following: The biotinylated oligo dT12 primer was precaptured on streptavidin-coated SPA beads by mixing primer and beads in assay buffer and incubating at room temperature for one hour. Unbound primer was removed after centrifugation. The primer-bound beads were resuspended in 20 mM Hepes buffer, pH 7.5 and used in the assay at final concentrations of 20 nM primer and 0.67 μg/μl beads. Order of addition in the assay: enzyme (14 nM) was added to diluted compound followed by the addition of a mixture of template (0.2 nM), 3H-UTP (0.6 μCi, 0.29 μM), and primer-bound beads, to initiate the reaction; concentrations given are final. Reactions were allowed to proceed for 4 hours at 30° C.
IC50 values for compounds were determined using seven different [I]. […]
On to `COc1ccc2c(c1)C=C(c1c(C(=O)N3[C@H]4CC[C@@H]3CC4)cnn1C)Cn1c-2c(C2CCCCC2)c2ccc(C(=O)NS(=O)(=O)C(C)C)cc21`, for which the pIC50 is 6.30 to 9.00.

The experiment is the same for the next values; noted with them: HCV RdRp genotype 1b enzyme; read-out: IC50.
`CCOC(=O)c1cnn(C)c1C1=Cc2cc(OC)ccc2-c2c(C3CCCCC3)c3ccc(C(=O)NS(=O)(=O)C4CCC4)cc3n2C1`: the negative-log IC50 (pIC50) is 6.30 to 9.00.

Turning to `COc1ccc2c(c1)C=C(c1nn(C(C)C)c(C)c1C(=O)N1C[C@@H](C)O[C@@H](C)C1)Cn1c-2c(C2CCCCC2)c2ccc(C(=O)NS(=O)(=O)C(C)C)cc21` [drawing 617], the pIC50 is 6.30 to 9.00. On the same count and under the same terms, the figure for `COc1ccc2c(c1)C=C(c1nn(C(C)C)c(C)c1C(=O)N1C[C@@H](C)O[C@@H](C)C1)Cn1c-2c(C2CCCCC2)c2ccc(C(=O)NS(=O)(=O)C(C)C)cc21` [drawing 622] is 6.30 to 9.00; for `CCc1nnc(CN(C(=O)c2cnn(C)c2C2=Cc3cc(OC)ccc3-c3c(C4CCCCC4)c4ccc(C(=O)NS(=O)(=O)C(C)C)cc4n3C2)C(C)C)o1` it is 6.30 to 9.00; for `COc1ccc2c(c1)C=C(c1c(C(=O)N3C[C@@H](C)N(C)[C@@H](C)C3)cnn1C)Cn1c-2c(C2CCCCC2)c2ccc(C(=O)NS(=O)(=O)C3CCCC3)cc21` it is 6.30 to 9.00.

As for `CCn1nc(C)c(C(=O)N2C[C@@H](C)N(C)[C@@H](C)C2)c1C1=Cc2cc(OC)ccc2-c2c(C3CCCCC3)c3ccc(C(=O)NS(=O)(=O)C(C)C)cc3n2C1`, the pIC50 was 6.30 to 9.00. Consider `CCC(C)S(=O)(=O)NC(=O)c1ccc2c(C3CCCCC3)c3n(c2c1)CC(c1c(C(=O)N2C[C@@H]4C[C@H]2CN4CC)cnn1C)=Cc1cc(OC)ccc1-3` (stereo partly drawn), for which the pIC50 is 6.30 to 9.00. Take `COc1ccc2c(c1)C=C(c1c(C(=O)O)cnn1C)Cn1c-2c(C2CCCCC2)c2ccc(C(=O)NS(=O)(=O)C3CCC3)cc21`: the pIC50 was 6.30 to 9.00.

As to `COc1ccc2c(c1)C=C(c1c(C(=O)N3C[C@@H](C)N(C)[C@@H](C)C3)cnn1C)Cn1c-2c(C2CCCCC2)c2ccc(C(=O)NS(=O)(=O)C3CCC3)cc21`, the pIC50 is 6.30 to 9.00. The same measure, in the same setting: next, `COc1ccc2c(c1)C=C(c1c(C(=O)N(Cc3ccccc3OC)C(C)C)cnn1C)Cn1c-2c(C2CCCCC2)c2ccc(C(=O)NS(=O)(=O)C(C)C)cc21`: 6.30 to 9.00; `COC(=O)c1c(C)nn(C)c1C1=Cc2cc(OC)ccc2-c2c(C3CCCCC3)c3ccc(C(=O)NS(=O)(=O)CC(C)C)cc3n2C1`: 6.30 to 9.00; `CCOC(=O)c1cnn(C)c1C1=Cc2cc(OC)ccc2-c2c(C3CCCCC3)c3ccc(C(=O)NS(=O)(=O)CC(C)C)cc3n2C1`: 6.30 to 9.00. Consider `COc1ccc2c(c1)C=C(c1c(C(=O)N3CC4CCC(C3)O4)c(C)nn1C(C)C)Cn1c-2c(C2CCCCC2)c2ccc(C(=O)NS(=O)(=O)C(C)C)cc21`, for which the pIC50 was 6.30 to 9.00. For the compound `COc1ccc2c(c1)C=C(c1c(C(=O)N3C[C@@H](C)N(C)[C@@H](C)C3)cnn1C)Cn1c-2c(C2CCCCC2)c2ccc(C(=O)NS(=O)(=O)CC(C)C)cc21`, the negative-log IC50 (pIC50) was 6.30 to 9.00. Consider `CCC(C)S(=O)(=O)NC(=O)c1ccc2c(C3CCCCC3)c3n(c2c1)CC(c1c(C(=O)N2CCN4CCCC4C2)cnn1C)=Cc1cc(OC)ccc1-3` (stereo not drawn), for which the negative logarithm of the IC50 (pIC50) was 6.30 to 9.00.

For the compound `COc1ccc2c(c1)C=C(c1c(C(=O)N3C[C@@H](C)O[C@@H](C)C3)cnn1C)Cn1c-2c(C2CCCCC2)c2ccc(C(=O)NS(=O)(=O)C3CCC3)cc21`, the pIC50 was 6.30 to 9.00. On to `COc1ccc2c(c1)C=C(c1c(C(=O)N3CCCC(N(C)C)C3)cnn1C)Cn1c-2c(C2CCCCC2)c2ccc(C(=O)NS(=O)(=O)CC(C)C)cc21` (stereo not drawn), for which the pIC50 is 6.30 to 9.00. The same measure, in the same setting: the figure for `COC(=O)c1c(C)nn(C)c1C1=Cc2cc(OC)ccc2-c2c(C3CCCCC3)c3ccc(C(=O)NS(=O)(=O)N(C)C)cc3n2C1` is 6.30 to 9.00; for `COc1ccc2c(c1)C=C(c1c(C(=O)N3CCN4CCCC4C3)cnn1C)Cn1c-2c(C2CCCCC2)c2ccc(C(=O)NS(=O)(=O)CC(C)C)cc21` (stereo not drawn) it is 6.30 to 9.00. Turning to `CCN1C[C@@H]2C[C@H]1CN2C(=O)c1cnn(C)c1C1=Cc2cc(OC)ccc2-c2c(C3CCCCC3)c3ccc(C(=O)NS(=O)(=O)C4CCCC4)cc3n2C1`, the negative logarithm of the IC50 (pIC50) was 6.30 to 9.00.

For `COc1ccc2c(c1)C=C(c1c(C(=O)O)cnn1C)Cn1c-2c(C2CCCCC2)c2ccc(C(=O)NS(=O)(=O)C(C)C)cc21`, the pIC50 was 6.30 to 9.00.

On to `CCn1nc(C)c(C(=O)N2CCO[C@H](COC)C2)c1C1=Cc2cc(OC)ccc2-c2c(C3CCCCC3)c3ccc(C(=O)NS(=O)(=O)C(C)C)cc3n2C1`, for which the pIC50 is 6.30 to 9.00. With `CCN(C(=O)c1cnn(C)c1C1=Cc2cc(OC)ccc2-c2c(C3CCCCC3)c3ccc(C(=O)NS(=O)(=O)C4CCCC4)cc3n2C1)C(C)C`, the pIC50 was 6.30 to 9.00. Still for that read-out and setting: next, `COc1ccc2c(c1)C=C(c1c(C(=O)N3C[C@@H](C)O[C@@H](C)C3)cnn1C)Cn1c-2c(C2CCCCC2)c2ccc(C(=O)NS(=O)(=O)C3CCCC3)cc21`: 6.30 to 9.00; `CCn1ncc(C(=O)N2CC3CCC(C2)O3)c1C1=Cc2cc(OC)ccc2-c2c(C3CCCCC3)c3ccc(C(=O)NS(=O)(=O)C(C)C)cc3n2C1`: 6.30 to 9.00. As to `COc1ccc2c(c1)C=C(c1c(C(=O)N3CCCC(N(C)C)C3)cnn1C)Cn1c-2c(C2CCCCC2)c2ccc(C(=O)NS(=O)(=O)C3CCCC3)cc21` (stereo not drawn), the pIC50 is 6.30 to 9.00. Turning to `CCOC(=O)c1cnn(C)c1C1=Cc2cc(OC)ccc2-c2c(C3CCCCC3)c3ccc(C(=O)NS(=O)(=O)C(C)CC)cc3n2C1` (stereo not drawn), the pIC50 is 6.30 to 9.00.

With `COc1ccc2c(c1)C=C(c1c(C(=O)N3CCN4CCCC4C3)cnn1C)Cn1c-2c(C2CCCCC2)c2ccc(C(=O)NS(=O)(=O)C3CCCC3)cc21` (stereo not drawn), the negative logarithm of the IC50 (pIC50) was 6.30 to 9.00. Still for that read-out and setting: the figure for `CCN1CC2CC1CN2C(=O)c1cnn(C)c1C1=Cc2cc(OC)ccc2-c2c(C3CCCCC3)c3ccc(C(=O)NS(=O)(=O)CC(C)C)cc3n2C1` (stereo not drawn) is 6.30 to 9.00.

The values above are taken from US8143243B2, “Compounds for the treatment of hepatitis C” (Bristol-Myers Squibb Company, priority 2007, dated 2012).
